Assay results: the supplement of paper PMC10307832

Experiments:
Experiment in all cases: relative viability (nuclei count vs DMSO), 5 days (fraction); higher = more cells survive
[1] = compound: Cc1ccc2nc(NCCN)c3ncc(C)n3c2c1 + COc1cccc2cc(-c3nc([C@H]4CC[C@H](C(=O)O)CC4)n4ncnc(N)c34)[nH]c12 [OSI-027] (partner 0.5 µM)
Method in brief: (§1)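 Medians of duplicate plates are given as relative viability. That measure is the nuclei count in treated wells divided by the count in vehicle wells. Counts were taken on 4× images of lung cancer cell lines in 1536-well plates, 5 days after pin-tool dosing the day after seeding with one drug alone or a fixed anchor-drug dose plus five library-drug doses (not always all listed) in √10 steps.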

[2] = compound: Cc1ccc2nc(NCCN)c3ncc(C)n3c2c1 + CS(=O)(=O)N1CCN(Cc2cc3nc(-c4cccc5[nH]ncc45)nc(N4CCOCC4)c3s2)CC1 [Pictilisib] (partner 1 µM)
Method in brief: as §1

[3] = compound: Cc1ccc2nc(NCCN)c3ncc(C)n3c2c1 + C[C@]1(O)C[C@@H](c2nc(-c3ccc4ccc(-c5ccccc5)nc4c3)c3c(N)nccn32)C1 [Linsitinib] (partner 1 µM)
Method in brief: as §1

[4] = compound: Cc1ccc2nc(NCCN)c3ncc(C)n3c2c1 + Cc1cc(Nc2cc(N3CCN(C)CC3)nc(Sc3ccc(NC(=O)C4CC4)cc3)n2)n[nH]1 [Tozasertib] (partner 0.1 µM)
Method in brief: as §1

| Cell Line | relative viability ([1]; first compound 0.04 µM) | relative viability ([1]; first compound 0.1265 µM) | relative viability ([1]; first compound 0.4 µM) | relative viability ([1]; first compound 1.265 µM) | relative viability ([1]; first compound 4 µM) | relative viability ([2]; first compound 0.04 µM) | relative viability ([2]; first compound 0.1265 µM) | relative viability ([2]; first compound 0.4 µM) | relative viability ([2]; first compound 1.265 µM) | relative viability ([2]; first compound 4 µM) | relative viability ([3]; first compound 0.04 µM) | relative viability ([3]; first compound 0.1265 µM) | relative viability ([3]; first compound 0.4 µM) | relative viability ([3]; first compound 1.265 µM) | relative viability ([3]; first compound 4 µM) | relative viability ([4]; first compound 0.04 µM) | relative viability ([4]; first compound 0.1265 µM) | relative viability ([4]; first compound 0.4 µM) | relative viability ([4]; first compound 1.265 µM) | relative viability ([4]; first compound 4 µM) |
| --- | --- | --- | --- | --- | --- | --- | --- | --- | --- | --- | --- | --- | --- | --- | --- | --- | --- | --- | --- | --- |
| LXF-289 | 0.898 | 0.79 | 0.901 | 0.872 | 0.776 | 0.912 | 0.795 | 0.799 | 0.765 | 0.723 | 0.981 | 0.949 | 0.967 | 0.975 | 1.01 | 0.186 | 0.192 | 0.163 | 0.178 | 0.212 |
| NCI-H23 | 0.828 | 0.709 | 0.54 | 0.607 | 0.531 | 0.549 | 0.472 | 0.446 | 0.462 | 0.466 | 0.746 | 0.489 | 0.55 | 0.611 | 0.576 | 0.707 | 0.403 | 0.451 | 0.301 | 0.422 |
| NCI-H322M | 0.641 | 0.544 | 0.481 | 0.568 | 0.526 | 0.521 | 0.566 | 0.571 | 0.512 | 0.503 | 0.889 | 0.907 | 0.857 | 0.79 | 0.899 | 0.553 | 0.452 | 0.528 | 0.547 | 0.462 |
| NCI-H358 | 0.807 | 0.708 | 0.694 | 0.797 | 0.858 | 0.348 | 0.394 | 0.364 | 0.379 | 0.367 | 0.755 | 0.769 | 0.694 | 0.88 | 0.665 | 0.11 | 0.134 | 0.0909 | 0.101 | 0.098 |
| NCI-H441 | 0.615 | 0.785 | 0.684 | 0.654 | 0.581 | 0.557 | 0.464 | 0.454 | 0.505 | 0.472 | 0.752 | 0.509 | 0.714 | 0.563 | 0.504 | 0.605 | 0.631 | 0.716 | 0.625 | 0.685 |
| NCI-H460 | 0.674 | 0.598 | 0.67 | 0.718 | 0.537 | 0.368 | 0.411 | 0.402 | 0.302 | 0.322 | 0.759 | 0.735 | 0.751 | 0.692 | 0.642 | 0.453 | 0.481 | 0.603 | 0.312 | 0.386 |
| NCI-H520 | 0.301 | 0.23 | 0.263 | 0.237 | 0.305 | 0.276 | 0.283 | 0.282 | 0.294 | 0.368 | 0.997 | 1.15 | 0.947 | 0.884 | 0.853 | 0.476 | 0.458 | 0.371 | 0.424 | 0.405 |
| NCI-H596 | 0.709 | 0.749 | 0.617 | 0.709 | 0.737 | 0.384 | 0.37 | 0.285 | 0.309 | 0.411 | 1.26 | 1.02 | 0.869 | 1.03 | 1.03 | 1.16 | 1.01 | 0.922 | 0.883 | 0.863 |
| NCI-H647 | 0.566 | 0.607 | 0.637 | 0.634 | 0.719 | 0.552 | 0.409 | 0.385 | 0.44 | 0.373 | 1.34 | 1.15 | 1.22 | 1.08 | 1.18 | 0.246 | 0.306 | 0.356 | 0.281 | 0.128 |
| NCI-H650 | 0.558 | 0.585 | 0.443 | 0.538 | 0.513 | 0.927 | 0.827 | 0.785 | 0.767 | 0.946 | 0.852 | 0.828 | 0.994 | 0.911 | 0.69 | 0.725 | 0.727 | 0.752 | 0.615 | 0.746 |
| NCI-H661 | 0.808 | 0.713 | 0.732 | 0.82 | 0.693 | 0.511 | 0.514 | 0.421 | 0.35 | 0.299 | 0.644 | 0.511 | 0.449 | – | 0.543 | 0.358 | 0.353 | 0.366 | 0.321 | 0.372 |
| NCI-H727 | 0.852 | 0.707 | 0.754 | 0.645 | 0.585 | 0.288 | 0.443 | 0.46 | 0.388 | 0.354 | 0.322 | 0.352 | 0.285 | 0.308 | 0.338 | 0.599 | 0.688 | 0.704 | 0.578 | 0.641 |
| NCI-H838 | 0.462 | 0.397 | 0.445 | 0.385 | 0.398 | 0.43 | 0.416 | 0.409 | 0.423 | 0.365 | 1.01 | 0.956 | 0.964 | 0.995 | 0.97 | 0.259 | 0.287 | 0.278 | 0.304 | 0.26 |
| NCI-H1355 | 0.447 | 0.447 | 0.335 | 0.384 | 0.404 | 0.46 | 0.449 | 0.406 | 0.392 | 0.386 | 0.811 | 0.825 | 0.814 | 0.771 | 0.719 | 0.565 | 0.517 | 0.611 | 0.546 | 0.553 |
| NCI-H1395 | 0.672 | 0.67 | 0.558 | 0.767 | 0.655 | 0.689 | 0.638 | 0.642 | 0.828 | 0.551 | 1 | 0.955 | 1.02 | 1.07 | 0.955 | 0.754 | 0.763 | 0.661 | 0.655 | 0.795 |
| NCI-H1437 | 1 | 0.871 | 0.886 | 0.879 | 0.884 | 0.427 | 0.449 | 0.443 | 0.369 | 0.374 | 0.991 | 0.932 | 1.03 | 0.936 | 0.821 | 0.412 | 0.399 | 0.39 | 0.364 | 0.368 |
| NCI-H1651 | 0.787 | 0.708 | 0.681 | 0.613 | 0.604 | 0.512 | 0.477 | 0.593 | 0.589 | 0.506 | 0.982 | 0.837 | 0.982 | 0.928 | 0.795 | 0.625 | 0.71 | 0.652 | 0.677 | 0.718 |
| NCI-H1666 | 0.839 | 0.799 | 0.887 | 0.816 | 0.774 | 0.372 | 0.478 | 0.402 | 0.554 | 0.449 | 0.909 | 0.843 | 0.942 | 0.822 | 0.71 | 0.665 | 0.676 | 0.677 | 0.502 | 0.544 |
| NCI-H1734 | 0.619 | 0.557 | 0.502 | 0.551 | 0.543 | 0.457 | 0.481 | 0.451 | 0.409 | 0.424 | 0.887 | 0.803 | 0.765 | 0.884 | 0.814 | 0.275 | 0.258 | 0.211 | 0.237 | 0.243 |
| NCI-H1755 | 0.77 | 0.738 | 0.718 | 0.72 | 0.655 | 0.485 | 0.439 | 0.476 | 0.39 | 0.411 | 0.989 | 1 | 0.934 | 1.07 | 0.946 | 0.552 | 0.565 | 0.536 | 0.511 | 0.524 |
| NCI-H1793 | 0.305 | 0.314 | 0.236 | 0.317 | 0.29 | 0.393 | 0.381 | 0.383 | 0.389 | 0.309 | 1.04 | 0.951 | 0.789 | 0.744 | 0.845 | 0.603 | 0.375 | 0.371 | 0.32 | 0.375 |
| NCI-H1915 | 0.641 | 0.605 | – | 0.696 | 0.594 | 0.969 | – | 0.578 | 0.939 | 0.923 | 1.1 | – | 1.16 | 1.1 | 1 | 0.481 | 0.492 | – | 0.432 | 0.416 |
| NCI-H1944 | 0.391 | 0.376 | 0.341 | 0.443 | 0.403 | 0.331 | 0.37 | 0.319 | 0.363 | 0.328 | 1.06 | 1.3 | 1.21 | 1.23 | 1.19 | 0.256 | 0.248 | 0.246 | 0.241 | 0.253 |
| NCI-H1975 | 0.709 | 0.692 | 0.711 | 0.716 | 0.523 | 0.317 | 0.281 | 0.245 | 0.261 | 0.242 | 0.972 | 0.93 | 0.91 | 0.897 | 0.893 | 0.818 | 0.866 | 0.824 | 0.639 | 0.56 |
| NCI-H1993 | 0.521 | 0.53 | 0.544 | 0.562 | 0.508 | 0.804 | 0.648 | 0.693 | 0.765 | 0.771 | 0.726 | 0.763 | 0.673 | 0.75 | 0.73 | 0.602 | 0.593 | 0.543 | 0.566 | 0.581 |
| NCI-H2009 | 0.764 | 0.668 | 0.722 | 0.632 | 0.525 | 0.866 | 0.767 | 0.841 | 0.762 | 0.765 | 1.15 | 1.14 | 1.22 | 1.22 | 1.05 | 0.754 | 0.725 | 0.72 | 0.734 | 0.541 |
| NCI-H2023 | 0.51 | 0.387 | 0.489 | 0.453 | 0.369 | 0.222 | 0.242 | 0.238 | 0.288 | 0.201 | 0.73 | 0.606 | 0.658 | 0.756 | 0.577 | 0.333 | 0.395 | 0.361 | 0.32 | 0.251 |
